Measurements from patent publication US9861102B2, “Methods for disinfection” (Markesbery Blue Pearl LLC, priority 2016, dated 2018).

System: Bacillus subtilis bacteria
Assay: Closed-system control experiments of peracid reactant compounds, percent kill
Type: cell-based
Conditions: for Percent Kill: B. subtilis agar plates, electrostatic spray, 2-micron thickness, concentrations as in Example 2, charge as indicated
Source text: The electrostatic spray device used was a Hurricane ES™ Portable Electrostatic Aerosol Applicator, modified to selectively impart either a positive, negative, or neutral charge when dispersing an aqueous composition containing a peracid reactant compound. In experiments where multiple aqueous compositions containing peracid reactant compounds were dispersed, the compositions were dispersed sequentially, and all aqueous compositions were dispersed with either a positive, negative, or neutral charge, as indicated below in Table 5. […] In all experiments, the percent by weight of distilled water was adjusted appropriately in response to the addition or deletion of a peracid reactant compound. […] Processing and handling of the agar plates containing the B. subtilis bacteria was conducted according to the procedure used in Example 3.

SMILES | Percent Kill | effect on bacterial growth (ethanol on its own)
CC(=O)O [Exp 8, Acetic Acid] | 6% | –
OO [Exp 7, Hydrogen Peroxide] | 72% | –
CCO [Exp 9, Ethanol] | 0% | no effect
